Article PMC6150378, “Chemical Constituents from the Flower of Hosta plantaginea with Cyclooxygenases Inhibition and Antioxidant Activities and Their Chemotaxonomic Significance” (Molecules : A Journal of Synthetic Chemistry and Natural …, 2017)

What was measured:
ovine COX-1 = target: T1, ovine COX-1 (Ovis aries, UniProt P05979)
T1 sequence (P05979 25-600): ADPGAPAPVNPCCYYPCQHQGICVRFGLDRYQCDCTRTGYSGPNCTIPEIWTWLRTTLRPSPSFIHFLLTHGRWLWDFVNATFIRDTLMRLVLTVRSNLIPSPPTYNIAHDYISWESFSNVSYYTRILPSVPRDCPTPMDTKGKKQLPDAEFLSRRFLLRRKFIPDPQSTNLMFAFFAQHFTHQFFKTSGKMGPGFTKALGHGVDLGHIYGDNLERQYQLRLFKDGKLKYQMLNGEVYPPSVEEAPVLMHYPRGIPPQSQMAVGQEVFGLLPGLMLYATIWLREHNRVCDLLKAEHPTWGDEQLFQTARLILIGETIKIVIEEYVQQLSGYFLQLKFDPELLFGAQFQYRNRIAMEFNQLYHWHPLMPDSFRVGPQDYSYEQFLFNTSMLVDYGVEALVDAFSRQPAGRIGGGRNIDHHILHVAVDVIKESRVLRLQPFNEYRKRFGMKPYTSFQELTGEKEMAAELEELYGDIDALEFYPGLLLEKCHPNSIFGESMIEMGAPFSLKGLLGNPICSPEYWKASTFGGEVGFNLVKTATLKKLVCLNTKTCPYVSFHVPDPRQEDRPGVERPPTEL
Description: (§1) 2,2-Di-phenyl-1-picrylhydrazyl (DPPH) (Sigma Corporation, Ronkonkoma, New York, NY, USA), L-cysteine methyl ester and o-tolyl isothiocyanate (Meilun Biotech. Co. Ltd., Dalian, China), D-glucose, and L-glucose (Energy Chemical, Shanghai, China) were used. COX inhibitor screening assay kit was purchased from Cayman Chemical Company (Ann Arbor, MI, USA).

ovine COX-2 = target: T2, ovine COX-2 (Ovis aries, UniProt P79208)
T2 sequence (P79208 17-603): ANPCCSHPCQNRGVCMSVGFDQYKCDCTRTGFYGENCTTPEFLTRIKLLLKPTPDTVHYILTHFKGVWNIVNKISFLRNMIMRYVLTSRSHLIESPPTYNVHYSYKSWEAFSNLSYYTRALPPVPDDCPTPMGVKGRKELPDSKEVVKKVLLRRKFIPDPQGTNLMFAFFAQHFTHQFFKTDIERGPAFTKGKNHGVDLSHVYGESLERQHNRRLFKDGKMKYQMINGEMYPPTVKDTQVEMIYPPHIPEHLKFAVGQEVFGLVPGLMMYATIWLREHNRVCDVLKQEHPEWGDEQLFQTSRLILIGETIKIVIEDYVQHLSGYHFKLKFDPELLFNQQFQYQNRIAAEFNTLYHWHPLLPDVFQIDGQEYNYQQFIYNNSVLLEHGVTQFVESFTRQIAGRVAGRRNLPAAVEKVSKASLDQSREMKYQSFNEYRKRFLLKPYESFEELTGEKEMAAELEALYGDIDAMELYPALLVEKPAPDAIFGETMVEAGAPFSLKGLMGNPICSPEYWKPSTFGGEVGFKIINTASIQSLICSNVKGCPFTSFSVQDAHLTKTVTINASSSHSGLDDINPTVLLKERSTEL
Description: as §1

[1] = Antioxidant assay: DPPH radical-scavenging activity; details: DPPH method; regression using five concentrations (500, 200, 100, 50, 25 μM); 517 nm, 40 min at 30 °C
Description: DPPH radical-scavenging activity of the sample was measured as previously described with minor modifications. In a 96-well microplate, 150 μL of DPPH solution (200 μM) was added to 50 μL of the test sample in methanol at different concentrations. The OD values of the reaction mixtures was recorded at 517 nm using a Multiskan Go (Thermo Fisher Scientific, Inc., Waltham, MA, USA) for 40 min at 30 °C. The DPPH radical scavenging activity was calculated by the following equation: DPPH scavenging activity % = […], where Asample represents the absorbance of sample and DPPH, Ablank represents the absorbance of sample and CH3OH, Acontrol represents the absorbance of DPPH and CH3OH. […] L-ascorbic acid was used as the positive control in this experiment. All tests were run in triplicate, and values obtained from experiments were averaged.

COc1cc(O[C@@H]2O[C@H](CO)[C@@H](O)[C@H](O)[C@H]2O)cc2c1C(=O)C[C@@H](c1ccc(O)cc1)O2 [Compound 1, hostaflavanone A]
IC50 (ovine COX-1): 21.6 ± 1.2 µM
IC50 (ovine COX-2): 45.4 ± 3.3 µM
IC50 [1]: 83.2 ± 3 µM

OC[C@H]1O[C@@H](OCCc2ccccc2)[C@H](O)[C@@H](O)[C@@H]1O [Compound 4, phenethyl-O-β-D-glucopyranoside]
IC50 (ovine COX-1): 15.5 ± 0.6 µM
IC50 (ovine COX-2): 38.2 ± 3.9 µM
IC50 [1]: 282 ± 5.2 µM

OC[C@H]1O[C@@H](OC[C@H]2O[C@@H](OCCc3ccccc3)[C@H](O)[C@@H](O)[C@@H]2O)[C@H](O)[C@@H](O)[C@@H]1O [Compound 5, phenethanol-β-D-gentiobioside]
IC50 (ovine COX-1): 38.4 ± 1.3 µM
IC50 (ovine COX-2): 31.7 ± 2.9 µM
IC50 [1]: 257 ± 13.8 µM

C[C@@H]1O[C@@H](OC[C@H]2O[C@@H](OCCc3ccccc3)[C@H](O)[C@@H](O)[C@@H]2O)[C@H](O)[C@H](O)[C@H]1O [Compound 6, phenethyl-O-rutinoside]
IC50 (ovine COX-1): 41.2 ± 1.5 µM
IC50 (ovine COX-2): 35.4 ± 1.6 µM
IC50 [1]: 275 ± 14.8 µM

O=C1O[C@H]([C@@H](O)CO)C(O)=C1O [L-ascorbic acid, reference compound]
IC50 [1]: 33.9 ± 1.1 µM
